In US9988380B2, “Quorum sensing inhibitors” (priority 2013, dated 2018):

What was measured:
rhlA-gfp(ASV) expression = experiment: Inhibition of the Rhl QS system, rhlA-gfp(ASV) reporter in PAO1 wild-type and lasR mutant; format: cell-based, P. aeruginosa
Experimental: Inhibition of the Rhl and PQS QS systems in wild-type PAO1 and PAO1 lasR mutant. Wild-type P. aeruginosa PAO1 strains harboring either the rhlA-gfp(ASV) reporter or the pqsA-gfp(ASV) reporter, and a P. aeruginosa PAO1 lasR mutant harboring either the rhlA-gfp(ASV) reporter or the pqsA-gfp(ASV) reporter were used for this experiment (Refer to FIG. 11 for strain information). Overnight cultures of these four strains were diluted 100-fold in ABTGC media within 96-well microtitre plates to a final volume of 200 μL per well. Each of the five QSIs was added in triplicate to a final concentration of 50 μM. 0.5% DMSO was used as a negative control. The microtitre plate was incubated at 37° C. in a Tecan Infinite 200 Pro plate reader where GFP and OD600 readings were measured at 15 min intervals.
Effect of QSIs on Rhl and Pqs Quorum-Sensing Systems. In order to address the problem of the specificity of present compounds, the five identified QSI compounds were tested to see if they had any effect on the rhl and pqs systems. The five QSIs were tested against a PAO1 wild-type and a PAO1 lasR mutant harboring either the rhlA-gfp (ASV) bioreporter or the pqsA-gfp (ASV) bioreporter. The rhlA system is dependent on the RhlR/I system. By doing so, we were able to determine if a QSI is able to inhibit the other two QS systems (i.e. rhl and pqs) in a lasR-dependent/independent manner (FIG. 8).

[1] = system: LasR-controlled GFP expression in P. aeruginosa PAO1 lasB-gfp(ASV) strain; experiment: P. aeruginosa QS inhibition assay with lasB-gfp(ASV) reporter strain; format: cell-based, Pseudomonas aeruginosa
Experimental: P. aeruginosa QS inhibition assays. Test compounds were dissolved in 100% DMSO and mixed with ABTGC media, after which they were added to the first column of wells of a 96-well microtitre plate (Nunc) to give a final concentration of 100 μM in a final volume of 200 μl. 100 μL of ABTGC media was then added to the remaining wells in the plate and serial two-fold dilutions of the inhibitors were done by adding 100 μL of the preceding inhibitor-containing well to the subsequent one. The final column was left without inhibitor as a control. Next, an overnight culture of P. aeruginosa lasB-gfp(ASV) strain, grown in LB medium at 37° C. with shaking, was diluted to an optical density (OD) at 600 nm of 0.2, and 100 μl of bacterial suspension was added to each well of the microtitre plate. […] The microtitre plate was incubated at 37° C. in a Tecan Infinite 200 Pro plate reader (Tecan Group Ltd., Männedorf, Switzerland). GFP fluorescence (excitation at 485 nm, emission at 535 nm) and cell density (OD600) measurements were collected at 15 min intervals for at least 14 h. The P. aeruginosa Rhl and Pqs inhibition assays were performed in a similar manner to the LasR inhibition assay.
Inhibition Assay with the P. aeruginosa lasB-gfp(ASV) strain. In the preliminary screen, the 22 selected QSI candidates were screened for their ability to inhibit QS-controlled green fluorescent protein (GFP) expression in the P. aeruginosa lasB-gfp(ASV) strain. Elastase (encoded by the lasB gene) is a virulence factor that is controlled by LasR and therefore a good indicator for LasR activity. […] For ease of identification, each compound was designated a short compound identification code based on its well position in the shipment in place of its standard IUPAC name.
The dose-response curves of these 5 QSI candidates when incubated with the P. aeruginosa PAO1 lasB-gfp(ASV) strain are shown in FIG. 3. GFP expression, which was measured in relative fluorescence units, was normalized by dividing the GFP value by the corresponding OD600 value measured at that time-point. ‘Control’ refers to the PAO1 strain grown without the presence of QSI, and as expected, it had the highest GFP per OD values. For these five compounds, dose-dependent inhibition of lasB-gfp expression was observed, i.e. the higher the concentration of QSI that was present, the greater the inhibition of gfp expression.
IC50 Value Comparisons of the Five QSI Candidates. The slope of the curve for each QSI was calculated based on its respective dose-response curves (from FIG. 3) and plotted against the log inhibitor concentration. The slope is indicative of the biosynthesis rate of GFP due to AHL induction. The half maximal inhibitory concentrations (IC50) of the five QSI candidates were calculated using the Graphpad Prism 6 software package (GraphPad Software Inc., CA, USA).

## N=c1[nH]c(=O)c2nn[nH]c2[nH]1 [Compound G1, 5-imino-4,6-dihydro-3H-1,2,3-triazolo[5,4-d]pyrimidin-7-one]
rhlA-gfp(ASV) expression; PAO1 lasR mutant, 50 μM QSI
  inhibition of rhlA-gfp expression: 46.5%
rhlA-gfp(ASV) expression; data not shown
  induction of the rhl QS system: delay the induction of the rhl QS system
rhlA-gfp(ASV) expression; wild-type PAO1, 50 μM QSI
  inhibition of rhlA-gfp expression: 23.1%
[1]; P. aeruginosa PAO1 lasB-gfp(ASV)
  IC50 of lasB-gfp expression, range in words: high nanomolar range
[1]; P. aeruginosa lasB-gfp(ASV) strain, OD600
  effect on cell growth: without affecting cell growth
[1]; P. aeruginosa lasB-gfp(ASV) strain, 0.78125-50 μM
  inhibition of LasR-controlled GFP expression: inhibit LasR-controlled GFP expression in a dose-dependent manner
[1]; Pseudomonas aeruginosa, PAO1, read-out: IC50 of lasB-gfp expression
  IC50: 640 nM
